Results published in PMC9579956 (RSC Medicinal Chemistry, 2022).

These molecules were tested against Mycobacterium thermoresistible (Mtr) LpqY (Mycolicibacterium thermoresistibile, UniProt G7CES0). Settings: single dose MST screen against LpqY.
Mycobacterium thermoresistible (Mtr) LpqY, sequence (G7CES0 29-471): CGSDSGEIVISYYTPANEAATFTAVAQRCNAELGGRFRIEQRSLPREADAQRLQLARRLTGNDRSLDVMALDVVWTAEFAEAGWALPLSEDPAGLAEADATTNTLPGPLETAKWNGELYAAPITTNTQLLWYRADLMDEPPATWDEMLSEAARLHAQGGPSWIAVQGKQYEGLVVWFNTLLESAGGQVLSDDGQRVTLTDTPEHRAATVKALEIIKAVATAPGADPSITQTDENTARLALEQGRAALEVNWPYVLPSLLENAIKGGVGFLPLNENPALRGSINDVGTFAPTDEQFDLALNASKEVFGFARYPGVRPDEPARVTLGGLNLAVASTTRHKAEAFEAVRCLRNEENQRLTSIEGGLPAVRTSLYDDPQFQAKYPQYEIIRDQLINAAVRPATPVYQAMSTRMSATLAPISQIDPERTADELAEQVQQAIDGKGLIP
Type: binding
`O=C(OCc1ccccc1)N1CCC(c2cc(-c3ccncc3)c(-c3ccc(F)cc3)[nH]2)CC1` [MMV688509] was tested, and the “Pathogen Box screen signal/noise ratio” value was 0.0833. For `Cc1cccc(-c2nc(Nc3ccncn3)c3sccc3n2)n1` [MMV688122], the “Pathogen Box screen signal/noise ratio” value was 1.3. With `Nc1ncc(-c2cn[nH]c2)cc1-c1nc2cc(Cl)cnc2[nH]1` [MMV023370] the “Pathogen Box screen signal/noise ratio” value was 1.1. `COc1ccc(C2=NN(C3CCCCCC3)C(=O)C2(C)C)cc1OCc1ccccn1` [MMV688360] was tested, and the “Pathogen Box screen signal/noise ratio” value was 1.5. `COc1ccc(C(=N)N)cc1-c1cn(-c2ccc(C(=N)N)cc2)nn1` [MMV675998] was tested, and the “Pathogen Box screen signal/noise ratio” value was 1.0. With `O=C(Nc1ccc(C(F)(F)F)c(C(F)(F)F)c1)c1cc(Cl)ccc1O` [MMV687807] the “Pathogen Box screen signal/noise ratio” value was 0.5. With `COc1ccc(-c2cnc3ccc(NCc4ccc(S(N)(=O)=O)cc4)nn23)cn1` [MMV010545] the “Pathogen Box screen signal/noise ratio” value was 0.463. In the case of `O=C(Nc1nnc(S)s1)c1cc(Br)ccc1Cl` [MMV676492], the “Pathogen Box screen signal/noise ratio” value is reported as 0.9. In the case of `OC[C@H]1O[C@@H](n2c3ccc(Cl)cc3c3c(-c4cc5ccccc5o4)ncnc32)C(O)[C@H]1O` (some centres unmarked) [MMV688921], the “Pathogen Box screen signal/noise ratio” value is reported as 1.1. `Nc1nccc2ccc(Oc3ccncc3)cc12` [MMV026313] was tested, and the “Pathogen Box screen signal/noise ratio” value was 1.4. With `OCCc1ccc(Nc2nccc(-c3nnc4ccccn34)n2)cc1` [MMV028694] the “Pathogen Box screen signal/noise ratio” value was 1.5. For `NC(=O)c1cc(Br)ccc1OCCOc1ccccc1` [MMV687243], the “Pathogen Box screen signal/noise ratio” value was 0.4. `CC(=O)NC[C@@H]1CN(c2ccc(N3CCOCC3)c(F)c2)C(=O)O1` [MMV687803] was tested, and the “Pathogen Box screen signal/noise ratio” value was 2.0. `Cc1cc(Nc2ccc(C(F)(F)F)cc2)n2ccnc2n1` [MMV011229] was tested, and the “Pathogen Box screen signal/noise ratio” value was 0.2. With `COC(=O)c1ccc(F)cc1NS(=O)(=O)c1cccc(-c2cnn(Cc3ccccc3)c2)c1` [MMV688350] the “Pathogen Box screen signal/noise ratio” value was 1.5. In the case of `CCC(C)NC(=O)c1ccc(NC(=O)C2(c3ccccc3)CCCC2)cc1` (centres unmarked) [MMV146306], the “Pathogen Box screen signal/noise ratio” value is reported as -0.653. For `COc1cccc2c(C)nc(N=C(N)N)nc12` [MMV000907], the “Pathogen Box screen signal/noise ratio” value was 1.1. In the case of `CO[C@@H]1CN(c2ccc(C#CC3(O)CN4CCC3CC4)c(Cc3ccccc3)n2)C[C@H]1O` (some centres unmarked) [MMV688415], the “Pathogen Box screen signal/noise ratio” value is reported as 1.0. `Cc1cnc(CCNC(=O)c2cc(-c3ccc(Cl)cc3)cs2)[nH]1` [MMV676350] was tested, and the “Pathogen Box screen signal/noise ratio” value was 1.3. `COc1ccc(C2CC(c3cccs3)=NN2C(=O)c2ccco2)cc1OC` (centres unmarked) [MMV019234] was tested, and the “Pathogen Box screen signal/noise ratio” value was 2.1. With `Cc1cc(OCC(=O)Nc2ccc(C(C)C)cc2)n(C)c(=O)c1C#N` [MMV1198433] the “Pathogen Box screen signal/noise ratio” value was 1.0. With `COc1ccc(Nc2ccccc2NC(=O)c2ccc(O)nc2)cc1` [MMV676554] the “Pathogen Box screen signal/noise ratio” value was 1.8. With `CCN(CC)CCCCCCNc1cc(OC)cc2c(C)ccnc12` [MMV000063] the “Pathogen Box screen signal/noise ratio” value was 2.2. In the case of `N#Cc1nc(-c2ccccc2F)oc1NCCc1ccccc1` [MMV676384], the “Pathogen Box screen signal/noise ratio” value is reported as 1.0. For `Brc1c(-c2ccc3c(c2)OCO3)nc2ncccn12` [MMV676377], the “Pathogen Box screen signal/noise ratio” value was 2.9. For `N=C(N)c1ccc(OCCCCCOc2ccc(C(=N)N)cc2)cc1` [MMV000062], the “Pathogen Box screen signal/noise ratio” value was 0.3. `CCc1ccc(C(NCc2nc(N)nc(N(C)C)n2)C(C)C)cc1` (centres unmarked) [MMV1019989] was tested, and the “Pathogen Box screen signal/noise ratio” value was 0.5. With `Cc1ccc2[nH]c(C3CCCNC3)c(-c3ccncc3)c2c1` (centres unmarked) [MMV024311] the “Pathogen Box screen signal/noise ratio” value was 0.4. For `Cc1ccc(-c2nc(CN(Cc3ccccn3)C(C)C)cs2)o1` [MMV1088520], the “Pathogen Box screen signal/noise ratio” value was 0.0. In the case of `CCCCc1ccc(NC(=O)Nc2ccc(O[C@H]3CCCC[C@@H]3N(C)c3ccccc3)c(F)c2)cc1` [MMV676063], the “Pathogen Box screen signal/noise ratio” value is reported as 0.0. With `COc1cc(CN2CCC3(C=Cc4ccccc43)CC2)cc2c1OCO2` [MMV688941] the “Pathogen Box screen signal/noise ratio” value was 0.5. In the case of `COc1ccc(C2=NN(C3CCCCCC3)C(=O)C2(C)C)cc1OCCCCOc1ccc(-c2nn[nH]n2)cc1` [MMV690028], the “Pathogen Box screen signal/noise ratio” value is reported as 2.5. `Cc1ccc(S(=O)(=O)N2CCN(C(=O)c3cc(-c4ccccc4)[nH]n3)CC2)cc1` [MMV019742] was tested, and the “Pathogen Box screen signal/noise ratio” value was 0.286. In the case of `Cc1ccc(NC(=O)CC2COc3ccccc3O2)cc1Cl` (centres unmarked) [MMV676431], the “Pathogen Box screen signal/noise ratio” value is reported as 2.3. With `O=C1COCc2ccc(Br)cc2N1Cc1ccc(C(F)(F)F)cc1` [MMV032995] the “Pathogen Box screen signal/noise ratio” value was 0.9. `FC(F)(F)c1nnc2ccc(Cl)nn12` [MMV069458] was tested, and the “Pathogen Box screen signal/noise ratio” value was 2.4. With `CS(=O)(=O)Cc1nc2ccccc2oc1=O` [MMV553002] the “Pathogen Box screen signal/noise ratio” value was 3.2. In the case of `CCc1ccc([C@@H]2C[C@H](C(F)(F)F)n3ncc(C(=O)NCc4ccc(OC)cc4)c3N2)cc1` [MMV687180], the “Pathogen Box screen signal/noise ratio” value is reported as 1.9. With `CCCn1c(NC(=O)c2ccc3ccccc3n2)nc2ccccc21` [MMV1030799] the “Pathogen Box screen signal/noise ratio” value was 0.9. With `CCc1nn(C)c(C(=O)NCc2ccc(Oc3ccc(C)cc3)cc2)c1Cl` [MMV688934] the “Pathogen Box screen signal/noise ratio” value was 1.5. For `Cc1cc(C)n2nc(C(=O)Nc3cc(C(F)(F)F)ccc3N3CCOCC3)nc2n1` [MMV019087], the “Pathogen Box screen signal/noise ratio” value was 1.2. With `CC1(C)Cc2c(c(N3CCOCC3)nc3snc(Br)c23)CO1` [MMV687794] the “Pathogen Box screen signal/noise ratio” value was 0.0714. In the case of `CO/C=C(/C(=O)OC)c1ccccc1Oc1cc(Oc2ccccc2C#N)ncn1` [MMV021057], the “Pathogen Box screen signal/noise ratio” value is reported as 0.6. `CC(C)n1nc(-c2cc3c(Cl)cccc3[nH]2)c2c(N)ncnc21` [MMV688417] was tested, and the “Pathogen Box screen signal/noise ratio” value was 1.3. `CN1CCN(S(=O)(=O)c2ccc(-c3ccc4c(Nc5ncc(Cl)cn5)ccnc4c3)cc2)CC1` [MMV688283] was tested, and the “Pathogen Box screen signal/noise ratio” value was 1.8. In the case of `CCOc1ccccc1C(=O)Nc1cccc(-c2nc3ncccn3c2C)c1` [MMV019790], the “Pathogen Box screen signal/noise ratio” value is reported as 1.6. With `COc1cccc(OCC(=O)c2ccc(Br)cc2)c1` [MMV676379] the “Pathogen Box screen signal/noise ratio” value was -0.0278. In the case of `CCCn1nnc(NC(=O)COc2ccc(C3CCCCC3)cc2)n1` [MMV676597], the “Pathogen Box screen signal/noise ratio” value is reported as 0.551. In the case of `COc1ccc(-c2nnc3ccc(-c4cccc(C(C)C)c4)cn23)cc1OC` [MMV688313], the “Pathogen Box screen signal/noise ratio” value is reported as 1.1. `O=C(CN1CCOCC1)Nc1ccc2ncnc(Nc3ccc(OCc4cccc(F)c4)c(Cl)c3)c2c1` [MMV688274] was tested, and the “Pathogen Box screen signal/noise ratio” value was 1.0. For `NCCN(C(=O)c1ccc(Cl)cc1Cl)c1ccc(OCc2ccc(Cl)cc2)cc1` [MMV688371], the “Pathogen Box screen signal/noise ratio” value was 1.7. `Cc1[nH]c2cc(F)cc(F)c2c(=O)c1-c1ccc(Oc2ccc(OC(F)(F)F)cc2)cc1` [MMV671636] was tested, and the “Pathogen Box screen signal/noise ratio” value was 0.545. In the case of `CC(C)C(Oc1cccc2ccccc12)C(=O)O` (centres unmarked) [MMV676191], the “Pathogen Box screen signal/noise ratio” value is reported as 0.9. In the case of `Cc1nc(-c2ccccn2)nc(N2CCC(Cc3ccccc3)C2)c1Cl` (centres unmarked) [MMV659004], the “Pathogen Box screen signal/noise ratio” value is reported as 0.2. In the case of `CC[C@H](CO)NCCN[C@H](CC)CO` [MMV687801], the “Pathogen Box screen signal/noise ratio” value is reported as 1.5. In the case of `CCc1c(C)nc(-n2nc(C)cc2NC(=O)c2ccccc2SC)[nH]c1=O` [MMV676477], the “Pathogen Box screen signal/noise ratio” value is reported as 0.7. For `CC(=O)N1CCc2cc3nc(C)cc(C)c3cc21` [MMV054312], the “Pathogen Box screen signal/noise ratio” value was 0.107. For `CCOC(=O)c1cc(-c2csc(Nc3c(C)cc(C)cc3C)n2)on1` [MMV676461], the “Pathogen Box screen signal/noise ratio” value was 2.4. For `Cc1cc2ccccc2n1CC(=O)N1CC(C(=O)N2CCCCC2)Oc2ccccc21` (centres unmarked) [MMV020520], the “Pathogen Box screen signal/noise ratio” value was 2.0. With `Cc1nn2c(=O)c3c([nH]c2c1-c1ccc(Cl)cc1)CCCC3` [MMV688776] the “Pathogen Box screen signal/noise ratio” value was 1.5. `CCc1nc2ccccc2n1CC(O)COc1cc(C)ccc1Cl` (centres unmarked) [MMV676449] was tested, and the “Pathogen Box screen signal/noise ratio” value was 1.2. With `COc1cc(C(F)(F)F)nc2ccc(C)c(N)c12` [MMV047015] the “Pathogen Box screen signal/noise ratio” value was 2.0. In the case of `O=C([C@@H](c1ccc(Cl)cc1)c1cccnc1)N1CCN(c2ccc(C(F)(F)F)cc2)CC1` [MMV689244], the “Pathogen Box screen signal/noise ratio” value is reported as 1.8. With `Nc1nccc2ccc(-c3ccc4nccn4c3)cc12` [MMV023233] the “Pathogen Box screen signal/noise ratio” value was 0.9. With `NCCC(O)C(=O)N[C@@H]1C[C@H](N)[C@@H](OC2O[C@H](CN)[C@@H](O)[C@H](O)[C@H]2O)[C@H](O)C1OC1O[C@H](CO)[C@@H](O)[C@H](N)[C@H]1O` (some centres unmarked) [MMV687796] the “Pathogen Box screen signal/noise ratio” value was 1.2. `CC(C)(C)n1nc(Cc2cccc3ccccc23)c2c(N)ncnc21` [MMV676599] was tested, and the “Pathogen Box screen signal/noise ratio” value was 0.6. `O=C(Nc1ccnc(-c2cccnc2)n1)c1cc(C(F)(F)F)cc(C(F)(F)F)c1` [MMV019838] was tested, and the “Pathogen Box screen signal/noise ratio” value was 2.8. In the case of `CCC(Sc1nc2ccccc2o1)C(=O)Nc1nccs1` (centres unmarked) [MMV676383], the “Pathogen Box screen signal/noise ratio” value is reported as 0.8. For `CO/N=C(\C(=O)OC)c1ccccc1CO/N=C(\C)c1cccc(C(F)(F)F)c1` [MMV688754], the “Pathogen Box screen signal/noise ratio” value was 1.2. `COc1ccc(C2=NN(C3CCCCCC3)C(=O)[C@@H]3CC=CC[C@H]23)cc1OCCCCOc1ccc(-c2nn[nH]n2)cc1` [MMV690027] was tested, and the “Pathogen Box screen signal/noise ratio” value was 0.9. In the case of `c1ccc(C[C@@H]2CN(c3nccc(Oc4ccc(-n5ccnc5)cc4)n3)CCN2)cc1` [MMV687749], the “Pathogen Box screen signal/noise ratio” value is reported as 0.0357. In the case of `c1csc(-c2cnc3sc(NCC4CCOCC4)nn23)c1` [MMV010764], the “Pathogen Box screen signal/noise ratio” value is reported as 0.667. With `COc1ccc(-c2cncc3ccc(C(=O)NCCCn4ccnc4)nc23)cc1` [MMV020670] the “Pathogen Box screen signal/noise ratio” value was 2.7. For `CC1CC1C(=O)NC1CCN(CC2(c3ccccc3)CCCCC2)CC1` (centres unmarked) [MMV020120], the “Pathogen Box screen signal/noise ratio” value was 1.1. With `CCn1ncc2c(NC3CCOCC3)c(CNC(=O)c3ccnn3C)c(C)nc21` [MMV026356] the “Pathogen Box screen signal/noise ratio” value was 0.6. For `Brc1cncc(-c2cc(NCCCn3ccnc3)nc(-c3ccccc3)n2)c1` [MMV661713], the “Pathogen Box screen signal/noise ratio” value was 0.5. `CS(=O)(=O)c1cccc(-c2cnc3[nH]cc(-c4ccc(CCC(=O)O)cc4)c3c2)c1` [MMV026020] was tested, and the “Pathogen Box screen signal/noise ratio” value was 1.4. In the case of `O=C(Nc1ccccc1-c1nc2c(C(=O)O)cccc2o1)c1ccccc1` [MMV676162], the “Pathogen Box screen signal/noise ratio” value is reported as 0.9. With `N#Cc1ccc(-c2cnc(N)c(-c3ccc(C(N)=O)cc3)n2)cc1` [MMV085499] the “Pathogen Box screen signal/noise ratio” value was 2.4. For `CC(=O)OC[C@H]1O[C@@H]([S-])[C@H](OC(C)=O)[C@@H](OC(C)=O)[C@@H]1OC(C)=O.CC[PH+](CC)CC.[Au]` [MMV688978], the “Pathogen Box screen signal/noise ratio” value was 0.85.
